These results are taken from ChEMBL document CHEMBL1123649, “Congener derivatives and conjugates of histamine: synthesis and tissue and receptor selectivity of the derivatives” (J Med Chem, 1987).

Test [1] has as its target Histamine H1 receptor (Homo sapiens) (UniProt P35367). Nature of the test: Effect on peripheral vasculature of the rabbit as percentage change in contractility. The class given is functional, tissue-based. The following applies: Oryctolagus cuniculus, target entry is the homologue from another species.
In test [2] the target is Histamine H2 receptor (Cavia porcellus) (UniProt P47747). Nature of the test: Relative potency in guinea pig myocardium (GPM) by adenylate cyclase stimulation assay, H2 receptor response. It is filed as functional, tissue-based.
The target in test [3] is Histamine H2 receptor (Mus musculus) (UniProt P97292). Nature of the test: Relative potency by cAMP assay in natural suppressor cells. The class given is functional, cell-based. In general terms: Changes in cAMP serve as a functional read-out for many G protein-coupled receptors.
Histamine H2 receptor (Mus musculus), sequence (P97292 whole entry): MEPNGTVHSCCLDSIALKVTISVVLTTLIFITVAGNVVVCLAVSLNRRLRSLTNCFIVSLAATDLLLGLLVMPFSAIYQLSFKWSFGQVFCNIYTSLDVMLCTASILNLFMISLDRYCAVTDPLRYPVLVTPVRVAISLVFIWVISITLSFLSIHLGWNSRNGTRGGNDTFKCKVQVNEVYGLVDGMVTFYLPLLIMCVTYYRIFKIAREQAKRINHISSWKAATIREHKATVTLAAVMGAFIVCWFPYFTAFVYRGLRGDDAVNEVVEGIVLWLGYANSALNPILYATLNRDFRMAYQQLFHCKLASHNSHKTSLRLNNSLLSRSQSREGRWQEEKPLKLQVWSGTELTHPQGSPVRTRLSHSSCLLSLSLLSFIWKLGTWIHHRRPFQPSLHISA

Histamine H2 receptor (Cavia porcellus), sequence (P47747 whole entry): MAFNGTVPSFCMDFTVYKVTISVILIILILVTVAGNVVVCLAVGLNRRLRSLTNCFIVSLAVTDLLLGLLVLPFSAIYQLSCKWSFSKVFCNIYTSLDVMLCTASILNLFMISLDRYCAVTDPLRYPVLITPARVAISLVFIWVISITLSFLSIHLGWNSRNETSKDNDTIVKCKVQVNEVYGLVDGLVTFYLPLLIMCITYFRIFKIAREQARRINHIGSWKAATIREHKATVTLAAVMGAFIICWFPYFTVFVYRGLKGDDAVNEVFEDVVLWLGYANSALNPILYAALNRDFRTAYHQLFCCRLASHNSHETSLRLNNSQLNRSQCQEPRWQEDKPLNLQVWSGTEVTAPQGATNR
Histamine H1 receptor (Homo sapiens), sequence (P35367 whole entry): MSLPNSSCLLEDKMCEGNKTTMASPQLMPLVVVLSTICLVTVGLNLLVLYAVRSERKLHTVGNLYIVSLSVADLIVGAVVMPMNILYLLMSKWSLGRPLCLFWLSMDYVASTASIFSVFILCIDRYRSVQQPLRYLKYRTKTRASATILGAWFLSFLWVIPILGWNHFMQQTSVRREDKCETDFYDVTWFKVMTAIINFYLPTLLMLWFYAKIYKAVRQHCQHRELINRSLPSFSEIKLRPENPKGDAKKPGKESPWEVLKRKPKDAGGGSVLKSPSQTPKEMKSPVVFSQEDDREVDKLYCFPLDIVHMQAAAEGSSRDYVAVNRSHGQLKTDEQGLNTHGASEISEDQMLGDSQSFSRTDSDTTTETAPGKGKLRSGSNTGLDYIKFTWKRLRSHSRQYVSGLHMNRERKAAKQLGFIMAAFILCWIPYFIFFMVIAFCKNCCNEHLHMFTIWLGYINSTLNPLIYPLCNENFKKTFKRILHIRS

In test [1], `Cc1ccc(NC(=O)CCCCCC(C)NCCc2c[nH]cn2)cc1` (stereo not given) registered a Change of 0%. The Relative potency in test [2] was found to be 0.02; in test [3], 2.
Taken in the same sequence, the figures for `CNC(=O)CNC(=O)C(Cc1ccccc1)N(NC(=O)CCC(C)NCCc1c[nH]cn1)C(=O)OC(C)(C)C` (stereo not given) were 0%, 0 and 0.
As to `Cc1ccc(NC(=O)CCCC(C)NCCc2c[nH]cn2)cc1` (stereo not given), the Change in test [1] stood at 90%. The Relative potency worked out at 0.01 in test [2] and 4000 in test [3].
The corresponding values for `Cc1ccc(NC(=O)CCCC(=O)NCCc2c[nH]cn2)cc1` are 0%, 0 and 4.4.
The corresponding values for `NCCc1c[nH]cn1` are 284%, 1 and 1.
Taken in the same sequence, the figures for `CNC(=O)CNC(=O)C(Cc1ccccc1)N(NC(=O)CCCC(C)NCCc1c[nH]cn1)C(=O)OC(C)(C)C` (stereo not given) were 0%, 0 and 0.
In the case of `Cc1ccc(NC(=O)CCC(C)NCCc2c[nH]cn2)cc1` (stereo not given), the Change in test [1] was determined as 0%. The same molecule had a Relative potency in test [3] of 0.
Taken in the same sequence, the figures for `CC(CC(=O)Nc1ccc(C(F)(F)F)cc1)NCCc1c[nH]cn1` (stereo not given) were 0% and 0.
In the case of `CC(CCCCC(=O)Nc1ccccc1C(F)(F)F)NCCc1c[nH]cn1` (stereo not given), the Change in test [1] turned out to be 0%. Also, the Relative potency in test [2] and in test [3] was 0 in each case.
`CCCCCC(C)NCCc1c[nH]cn1` (stereo not given) yielded a Change in test [1] of 0%. Also, the Relative potency in test [2] and in test [3] was 0 in each case.
Turning to `CCCCCC(=O)NCCc1c[nH]cn1`, the Change in test [1] amounted to 0%. For the same molecule, the Relative potency in test [2] and in test [3] was 0 each time.
For `Cc1ccc(NC(=O)CC(C)NCCc2c[nH]cn2)cc1` (stereo not given), the Change in test [1] was determined as 0%. For the same molecule, the Relative potency in test [3] turned out to be 0.
On to `CCCCCCNCCc1c[nH]cn1`, for which the Change in test [1] was 93%. For the same molecule, the Relative potency in test [2] amounted to 0; in test [3], 5.
With `CC(CCCCC(=O)Nc1ccc(C(F)(F)F)cc1)NCCc1c[nH]cn1` (stereo not given), the results for the Relative potency in test [2] and in test [3] were 0 and 40000, respectively.
`CC(CCCC(=O)Nc1ccc(C(F)(F)F)cc1)NCCc1c[nH]cn1` (stereo not given) came in with a Change in test [1] of 0%. Further, the Relative potency in test [2] and in test [3] was 0 in each case.
Molecule `CNC(=O)CNC(=O)C(Cc1ccccc1)N(NC(=O)CCCCC(C)NCCc1c[nH]cn1)C(=O)OC(C)(C)C` (stereo not given) came in with a Change in test [1] of 0%. Moreover, the Relative potency was found to be 0.0007 in test [2] and 0 in test [3].
As to `CCCCNC(=O)CCCCC(C)NCCc1c[nH]cn1` (stereo not given), in test [1], the Change is 0%. For the same molecule, the values for the Relative potency in test [2] and in test [3] were 0.01 and 0, respectively.
Taken in the same sequence, the figures for `Cc1ccc(NC(=O)CCCCC(C)NCCc2c[nH]cn2)cc1` (stereo not given) were 0%, 0.07 and 3.
In the case of `CC(CCC(=O)Nc1ccc(C(F)(F)F)cc1)NCCc1c[nH]cn1` (stereo not given), in test [1], the Change was determined as 0%. In addition, in test [3], the Relative potency was 0.
In test [1], `Cc1ccc(NC(=O)CCCCNCCc2c[nH]cn2)cc1` gave a Change of 0%. The Relative potency came out at 0.09 in test [2] and 2 in test [3].
